Results on seven compounds are retold here after patent publication US11579149B2, “Hippo pathway bioluminescent biosensor” (Queen's University at Kingston, priority 2017, dated 2023).

In test [1] the test system is LATS kinase activity. Put plainly: LATS-BS under stimuli regulating Hippo signaling (in vitro luciferase assay and live cell luciferase imaging). Format: cell-based, human. Particulars: cell lysates (luciferase assay) and live cells (BLI). The protocol:
For live cell imaging, LATS-BS or a pGL3-control vector were transfected into HEK293, MDA-MB-231 or A549 cells. After 48 hours, cells were trypsinized and collected in a black, clear bottomed, 96-well plate. 150 μg/mL D-luciferin (D-Luciferin, Potassium Salt, GoldBio #LUCK-250) in media was added to each well 5-10 min before imaging. Exposure time for images was approximately 3 min/plate. Imaging was performed using a LightTools Research system (Synopsys, Ltd., Mountain View, Calif., USA) dark box and a Hamamatsu ORCA-Flash4.0 V2 digital CMOS camera over the course of 20 minutes to establish optimal peak luciferase activity. The bioluminescence of the regions of interest was analyzed for total emission flux using Image-Pro® Plus software (Media Cybernetics, Inc., Rockville, Md., USA).
Experiments were conducted to further validate the LATS intermolecular biosensor and explore potential applications for its use. The LATS-BS responded to numerous signals reported to modulate Hippo pathway activity, including cell confluency, drugs activating Hippo signaling (Forskolin, PI3K inhibitor, PDK inhibitor, F-IBMX, and 2-deoxy-glucose) and Hippo signaling inhibitors (LPA, EGF, Insulin, S1P, and TPA). The LATS-BS is activated by LATS in various cell lines (e.g., A549, MDA-MB231).
The following compound treatments were used for in vitro luciferase assay and live cells imaging: RAF inhibitor (GW5054, Cayman Chemical, Ann Arbor, Mich., USA), ATR inhibitor (CGK733, Cayman Chemical), PI3K inhibitor 1 (GDC0941, Cayman Chemical), PI3K inhibitor 2 (LY294002, Cayman Chemical), PDK inhibitor (GSK2334470, Cayman Chemical)—10 μM for 4 hours; EGF-100 ng/mL for 1 hour; insulin (Sigma #91077C)—10 μg/ml for 1 hour, F/IBMX (Forskolin, Cayman Chemical/IBMX, Cayman Chemical)—0.1-10 μM for Forskolin and 100 μM for IBMX for 1 hour; L-α-lysophosphatidic acid (LPA) (Sigma #L7260)—0.1-10 μM for 1 hour, sphingosine1-phosphophate (S1P)—1 μM for 1 hour; 12-O-tetradecanoylphorbol-13-acetate (TPA) (#41745; Cell Signaling Technology, Inc., Danvers, Mass., USA)—5 nM for 1 hour; 2-deoxy glucose (#D8375, Sigma-Aldrich Canada Co., Oakville, Ontario, Canada)—25 mM for 1 hour.

For test [2], the system named is LATS kinase activity. Put plainly: LATS-BS validation in transfected HEK293 cells (luciferase assay / western blot). Format: cell-based, human. Conditions: HEK293 co-transfected with LATS-BS and MST2, 10 μM LPA for 1 hour before collection. The protocol: In a validation study, LATS-BS was transfected alone or together with LATS2 or/and MST2 into HEK293 cells and biosensor activity or NLuc-YAP15-S127 phosphorylation status were determined 48 hours after transfection by luciferase assay or western blot, respectively. As depicted in FIG. 2C, HEK293 cells transfected with LATS-BS alone had low luciferase activity and this was correlated with a low degree of Nluc-YAP15-S127 phosphorylation. Co-transfection of LATS-BS with MST2 was associated with increases in both Nluc-YAP-S127 phosphorylation and luciferase activity, and this effect was suppressed with lysophosphatidic acid (LPA), an inhibitor of the Hippo pathway. For lysophosphatidic acid (LPA) treatment, cells were stimulated with 10 μM LPA for 1 hour before collection (n=3). LATS-BS co-expression with both MST2 and LATS2 was correlated with further increases in Nluc-YAP15-S127 phosphorylation and luciferase activity. Collectively, these observations are consistent with a model where MST2 activates LATS2, which phosphorylates Nluc-YAP15-S127, leading to binding with Cluc-14-3-3 and reconstitution of active luciferase.

Turning to `CCCCCCCCCCCCC/C=C/[C@@H](O)[C@@H](N)COP(=O)(O)O` [S1P, sphingosine1-phosphophate], the “LATS-BS response to signals modulating Hippo pathway activity” value (“LATS-BS response” for short) in test [1] is “responded”.

On to L-α-lysophosphatidic acid [LPA], for which the “Nluc-YAP-S127 phosphorylation (western blot)” value in test [2] is recorded as “suppressed”. The LATS-BS luciferase activity result in test [2] (n=3) is recorded as “suppressed”. In test [1], the “LATS-BS response” value was “responded”. With `CNc1nc(-c2ccc3c(N)n[nH]c3c2)cc(N2C[C@@H](C(=O)NC3CCCCC3)CC[C@H]2C)n1` [PDK inhibitor], the “LATS-BS response” value in test [1] is recorded as “responded”. The same measure, in the same setting: then EGF: Hippo signaling inhibitor, with “responded”; and “Insulin: Hippo signaling inhibitor (Sigma #91077C)”, with “responded”.

Take `CCCCCCCCCCCCCC(=O)O[C@@H]1[C@@H](C)[C@@]2(O)[C@@H](C=C(CO)C[C@]3(O)C(=O)C(C)=C[C@@H]23)[C@@H]2C(C)(C)[C@]12OC(C)=O` [TPA, 12-O-tetradecanoylphorbol-13-acetate]: in test [1], the “LATS-BS response” value is given as “responded”. `O=CC[C@@H](O)[C@H](O)[C@H](O)CO` [2-deoxy-glucose, 2-deoxy glucose]: the “LATS-BS response” value in test [1] is reported as “responded”.
